Test results published in article PMC12096829, “Maltodextrin transport in the extremely thermophilic, lignocellulose degrading bacterium Anaerocellum bescii (f. Caldicellulosiruptor bescii)” (Journal of Bacteriology, 2025).
Where “and” joins values, the source holds several entries; their conditions need not be identical. Equal entries are not always repeated. Where two headings read alike, the source gives them in different places.

Legend:
[1] = target: T1, Athe_2310 (Anaerocellum bescii, UniProt A0ABY1S743); assay: DSC thermal shift of Athe_2310 with ɑ-glucan substrates; type: binding; settings: 5 mM sugar, 50 mM HEPES, 300 mM NaCl pH 7.0; for Tm: Athe_2310 + sugar, 2.5 mg/mL protein; for ΔTm: Athe_2310, |Tm,holo − Tm,apo|
T1 sequence (A0ABY1S743 entry or part of it): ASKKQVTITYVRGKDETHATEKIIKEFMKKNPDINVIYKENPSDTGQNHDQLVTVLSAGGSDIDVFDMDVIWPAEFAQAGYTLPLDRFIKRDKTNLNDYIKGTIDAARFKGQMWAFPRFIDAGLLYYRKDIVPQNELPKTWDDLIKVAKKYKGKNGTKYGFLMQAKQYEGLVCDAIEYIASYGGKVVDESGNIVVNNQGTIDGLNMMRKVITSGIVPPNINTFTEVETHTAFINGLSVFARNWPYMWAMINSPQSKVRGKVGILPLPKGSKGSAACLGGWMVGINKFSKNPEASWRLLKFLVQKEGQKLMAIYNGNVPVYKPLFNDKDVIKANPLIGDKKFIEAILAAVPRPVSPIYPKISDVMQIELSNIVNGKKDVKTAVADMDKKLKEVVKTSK
Source text: (§1) In DSC, proteins are heated at a constant rate to induce thermal denaturation. This can be measured by an increase in the protein’s specific heat capacity Cp(T) as a function of temperature. The melting temperature Tm is defined as the temperature at which the protein attains its maximum heat capacity and becomes fully denatured ([46]). However, the presence of their cognate ligands can induce substrate-binding proteins to adopt a more thermally stable closed conformation, resulting in an increase in Tm ([47]). This ΔTm = |Tm,holo − Tm,apo| difference can be used to determine differential substrate specificity, as preferred ligands that are more tightly bound will yield larger ΔTm values. […] However, other short ɑ-glucans trehalose (ΔTm = 7.23 °C) and maltotriose (ΔTm = 6.63 °C) also yield substantial melting temperature differences. Melting temperature differences are subtler with longer oligosaccharides maltotetraose (ΔTm = 1.57 °C), maltopentaose (ΔTm = 0.95 °C), and maltoheptaose (ΔTm = 0.26 °C) (Fig. 4a). However, as binding of maltose to E. coli MBP is known to increase protein melting temperature by approximately 8 °C, depending on pH, it is unlikely binding is taking place between Athe_2310 and longer maltodextrins (G4–G7) due to their much smaller ΔTm values in comparison ([47], [48]).
(§2) DSC measurements using a MicroCal PEAQ-DSC (Malvern Panalytical) were performed on Athe_2310 and Athe_2574 in combination with a variety of ɑ-glucans: trehalose (G2), maltose (G2), maltotriose (G3), maltotetraose (G4), maltopentaose (G5), and maltoheptaose (G7). The scan rate was set to […], with a max temperature of 130 °C. Protein was mixed with each sugar, yielding final concentrations of 2.5 mg/mL of protein and 5 mM of sugar. A total of 50 mM HEPES, 300 mM NaCl, pH 7.0, was used as the reference buffer. The heat capacity Cp was plotted against temperature and then normalized by the respective run’s maximum Cp value ( Cp,max ). We defined the melting temperature Tm as the temperature corresponding to Cp,max=Cp(T=Tm) . The melting temperature difference ΔTm=|Tm,holo-Tm,apo| is defined as the absolute difference in melting temperature between the melting temperature of a protein-sugar mix and the same protein with no sugar present.

[2] = target: T2, Athe_2574 (Anaerocellum bescii, UniProt A0ABY1S640); assay: DSC thermal shift of Athe_2574 with ɑ-glucan substrates; type: binding; settings: for Tm: Athe_2574 + sugar, 2.5 mg/mL protein; for Tm / ΔTm: 5 mM sugar, 50 mM HEPES, 300 mM NaCl pH 7.0; for ΔTm: |Tm,holo − Tm,apo|
T2 sequence (A0ABY1S640 entry or part of it): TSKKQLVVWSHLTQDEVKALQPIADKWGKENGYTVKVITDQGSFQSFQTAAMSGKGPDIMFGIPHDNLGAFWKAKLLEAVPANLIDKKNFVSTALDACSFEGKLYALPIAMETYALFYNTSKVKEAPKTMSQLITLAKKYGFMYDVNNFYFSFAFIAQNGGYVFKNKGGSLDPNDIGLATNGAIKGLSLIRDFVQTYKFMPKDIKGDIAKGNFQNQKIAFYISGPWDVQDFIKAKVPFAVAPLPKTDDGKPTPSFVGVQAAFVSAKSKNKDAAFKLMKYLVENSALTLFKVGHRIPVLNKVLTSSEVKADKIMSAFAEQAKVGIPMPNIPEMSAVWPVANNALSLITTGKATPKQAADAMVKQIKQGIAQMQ
Source text: as §1, §2

[3] = target: T2, Athe_2574; assay: biochemical; type: binding; settings: for TΔS / ΔG / ΔH / Kd / Ka / n (stoichiometry): ITC 25 °C; for Kd: 50 mM HEPES; for Ka: Ka=1/Kd; for n (stoichiometry): single-site binding model
Experimental: (§3) Proteins were dialyzed into the following buffer: 50 mM HEPES, 300 mM NaCl, pH 7.0 via 10 kDa MWCO PES filter 20 mL Spin-X Concentrators (Corning). Measurements were performed at 25 °C using a MicroCal PEAQ Isothermal Titration Calorimeter (Malvern Panalytical). A standard titration experiment consisted of the protein sample at 50 µM and the sugar ligand at 500 µM. The stirring was set at 750 rpm. The 280 µL sample of protein was injected with a priming aliquot of 0.2 µL of sugar ligand, followed by 19 successive injections of 2.0 µL at 120 seconds intervals. Integrated heat effects were determined by non-linear regression using a single-site binding model (Microcal PEAQ-ITC Analysis). The fitted isotherms yield the binding dissociation constant and other thermodynamic parameters calculated using the differential form of the Gibbs Free Energy equation ΔGd=-RTln(Kd) . The slope of the binding isotherm at the equivalence point was used to determine the dissociation constant Kd . The association rate constant Ka is defined as Ka=1/Kd .

[4] = target: T1, Athe_2310; assay: ITC of Athe_2310 with ɑ-glucan substrates; type: binding; settings: for Ka: Ka=1/Kd; for n (stoichiometry): single-site binding model
Experimental: as §3, with “Measurements were performed at 25 °C using a MicroCal PEAQ Isothermal Titration Calorimeter (Malvern Panalytical).” left out, “.” for “. The association rate constant Ka is defined as Ka=1/Kd .”

[5] = test system: Athe_2310_Mut1 (D69F G279F G278F); assay: DSC screen of mutant Athe_2310_Mut1 with maltodextrins; type: binding, Anaerocellum bescii; settings: Fig. S5, result in words
Source text: We constructed mutant variants Athe_2310_Mut1 (D69F G279F G278F) and Athe_2574_Mut1 (G253F V254F P61W N63F D64F M322A W332A) that each contain point substitutions on residues predicted to be critical for both hydrophobic and hydrophilic contacts. In other words, the mutation of these residues is predicted to confer energetic penalties sufficiently large to prevent substrate binding. […] Similarly, Athe_2574_Mut1, with seven-point mutations due to its greater number of subsites, can no longer recognize maltodextrin substrates of any length (Fig. S6).
as §2, with “The melting temperature difference ΔTm=|Tm,holo-Tm,apo| is defined as the absolute difference in melting temperature between the melting temperature of a protein-sugar mix and the same protein with no sugar present.” left out

[6] = test system: E. coli MBP; set-up: method as in PMID 9007986, doi:10.1007/s00723-020-01232-y; settings: depending on pH; cited from earlier work
[7] = 300 mM NaCl pH 7.0, read-out: Kd
[8] = Athe_2310, ITC 25 °C, 50 mM HEPES, 300 mM NaCl pH 7.0, read-out: Kd

SMILES | Tm [1] | Tm [2] | TΔS [3] | ΔG [3] | ΔH [3] | Kd [3, 7] | Ka [3] | n (stoichiometry) [3] | ΔTm [1] | ΔTm ([2]; Athe_2574) | TΔS ([4]; Athe_2310, ITC 25 °C) | ΔG ([4]; Athe_2310, ITC 25 °C) | ΔH ([4]; Athe_2310, ITC 25 °C) | Kd [4, 8] | Ka ([4]; Athe_2310, ITC 25 °C) | n (stoichiometry) ([4]; Athe_2310, ITC 25 °C) | binding to Athe_2310_Mut1 [5] | also measured
OC[C@H]1O[C@H](O[C@H]2[C@H](O)[C@@H](O)[C@@H](O[C@H]3[C@H](O)[C@@H](O)[C@@H](O[C@H]4[C@H](O)[C@@H](O)C(O)O[C@@H]4CO)O[C@@H]3CO)O[C@@H]2CO)[C@H](O)[C@@H](O)[C@@H]1O (stereo partly drawn) [MalG4, D-Maltotetraose] | 103.36 °C | 104.26 °C | 0.664 kcal/mol | -9.24 kcal/mol | -9.90 ± 0.19 kcal/mol | 170 ± 40 nM | 5.848e+06 M⁻¹ | 0.98 ± 0.01 | – | – | – | – | – | – | – | – | – | Tm ([1]; listed as Maltotetraose): 103.4 °C; Tm ([2]; listed as Maltotetraose): 102.7 °C
OC[C@H]1O[C@H](O[C@H]2[C@H](O)[C@@H](O)[C@@H](O[C@H]3[C@H](O)[C@@H](O)[C@@H](O[C@H]4[C@H](O)[C@@H](O)[C@@H](O[C@H]5[C@H](O)[C@@H](O)[C@@H](O[C@H]6[C@H](O)[C@@H](O)[C@@H](O[C@H]7[C@H](O)[C@@H](O)C(O)O[C@@H]7CO)O[C@@H]6CO)O[C@@H]5CO)O[C@@H]4CO)O[C@@H]3CO)O[C@@H]2CO)[C@H](O)[C@@H](O)[C@@H]1O (stereo partly drawn) [MalG7, D-Maltoheptaose] | 102.06 °C | 105.04 °C | -2.69 kcal/mol | -9.98 kcal/mol | -7.29 ± 0.04 kcal/mol | – | 2.0492e+07 M⁻¹ | 0.82 ± 0.00 | – | – | – | – | – | – | – | – | – | Tm ([1]; listed as Maltoheptaose): 102.1 °C; Tm ([2]; listed as Maltoheptaose): 105.0 °C; Kd ([3]; Kd, 300 mM NaCl pH 7.0): 49 nM and 50 nM
OC[C@H]1O[C@H](O[C@H]2[C@H](O)[C@@H](O)[C@@H](O[C@H]3[C@H](O)[C@@H](O)[C@@H](O[C@H]4[C@H](O)[C@@H](O)[C@@H](O[C@H]5[C@H](O)[C@@H](O)C(O)O[C@@H]5CO)O[C@@H]4CO)O[C@@H]3CO)O[C@@H]2CO)[C@H](O)[C@@H](O)[C@@H]1O (stereo partly drawn) [MalG5, D-Maltopentaose] | 102.73 °C | 104.93 °C | -3.03 kcal/mol | -9.56 kcal/mol | -6.52 ± 0.07 kcal/mol | 100 ± 10 nM | 9.901e+06 M⁻¹ | 0.90 ± 0.00 | – | – | – | – | – | – | – | – | – | Tm ([1]; listed as Maltopentaose): 102.7 °C; Tm ([2]; listed as Maltopentaose): 104.9 °C
OC[C@H]1O[C@H](O[C@H]2O[C@H](CO)[C@@H](O)[C@H](O)[C@H]2O)[C@H](O)[C@@H](O)[C@@H]1O [Trehalose, D-Trehalose Dihydrate] | 109.02 °C | 92.8 °C and 92.69 °C | – | – | – | – | – | – | 7.23 °C | 0.1 °C | -4.45 kcal/mol | -7.63 kcal/mol | -3.18 ± 0.14 kcal/mol | 2.59 ± 0.5 µM | 386000 M⁻¹ | 0.96 ± 0.02 | – | binding to Athe_2574 judged from DSC melting profile ([2]; Athe_2574, result in words): absence of binding
OC[C@H]1O[C@H](O[C@H]2[C@H](O)[C@@H](O)[C@@H](O[C@H]3[C@H](O)[C@@H](O)C(O)O[C@@H]3CO)O[C@@H]2CO)[C@H](O)[C@@H](O)[C@@H]1O (stereo partly drawn) [MalG3, D-Maltotriose] | 108.42 °C | 101.47 °C | 20.4 kcal/mol | -4.48 kcal/mol | -24.80 ± 2410 kcal/mol | 523000 nM | 1900 M⁻¹ | 1.57 ± 85.80 | 6.63 °C | 8.72 °C | -4.85 kcal/mol | -7.21 kcal/mol | -2.36 ± 0.38 kcal/mol | 5.21 ± 2.98 µM | 192000 M⁻¹ | 0.79 ± 0.06 | can no longer bind | Tm ([1]; listed as Maltotriose): 108.4 °C; Tm ([2]; listed as Maltotriose): 101.5 °C
OC[C@H]1O[C@H](O[C@H]2[C@H](O)[C@@H](O)[C@H](O)O[C@@H]2CO)[C@H](O)[C@@H](O)[C@@H]1O [Maltose, D-Maltose Monohydrate] | 110.9 °C and 110.85 °C | 97.8 °C | – | – | – | – | – | – | – | – | -3.85 kcal/mol | -7.38 kcal/mol | -3.53 ± 0.18 kcal/mol | – | 254000 M⁻¹ | 0.76 ± 0.02 | can no longer bind | increase of protein melting temperature on binding [6]: approximately 8 °C; Kd [4]: 3.93 ± 0.78 µM; ITC enthalpy changes of binding / fit of Kd and n ([3]; result in words): too small to fit meaningful
